Results on nine compounds are retold here after patent US10653676B2 (Dana-Farber Cancer Institute, Inc., priority 2010, dated 2020).

In data set [1] the test system is HR pathway-proficient breast tumor line. The note with it: preliminary xenograft studies, data not shown. An excerpt:
Preliminary breast cancer xenograft studies with one HR pathway-proficient breast tumor line have been conducted.

In data set [2] the test system is endogenous DUB enzyme complexes. The data set can be described thus: HA-Ub-VS labelling of other endogenous DUBs in HeLa cell extracts. It counts as biochemical, human. The note with it: HeLa cell extracts pretreated 4 h (Ub-Ald 5 μM), then Ub-VS 40 min at 30° C.; FIG. 7. Here is the method:
FIG. 7 is a composite figure depicting preferential inhibition of the activity of native USP1/UAF1 by C527. HeLa cell extracts were incubated with ubiquitin-aldehyde (Ub-Ald, 5 μM) or C527 at indicated concentrations for 4 h, followed by the addition of 0.5 μM Ub-Vs for 40 min. The reaction was split into two aliquots and subjected to immunoblotting for HA or USP1, respectively.
The ability of C527 to inhibit the deubiquitinating activity of native USP1 complexes derived from human cells was determined next (FIG. 7). For this purpose, the HA-tagged ubiquitin-VS, an affinity reagent known to covalently modify and trap active DUB enzymes in cell extracts was used. Cell extracts prepared from HeLa cells were pretreated with increasing concentrations of C527 for 4 h, followed by the incubation with Ub-VS for 40 min at 30° C. The enzymatic activity of endogenous DUBs was indicated by the conjugation of Ub-VS, detected as HA-labeling (see FIG. 7, high molecular weight bands). […] Ub-VS conjugation was inhibited by ubiquitin-aldehyde (Ub-Ald), a non-specific inhibitor of DUBs (lane 3).

The target in data set [3] is T1, USP1/UAF1 complex (Homo sapiens, UniProt O94782, G670A/G671A).
T1 construct: This modified full length USP1 clone was PCR amplified and subcloned into pFastBac-HT vectors; His tag (N); made in house; host or cells: Sf9 insect cells (baculovirus)
The note with it: bioactive libraries; in the range of Al-Ub-treated positive control; previously shown, US 2008/0167229 A1; cited from earlier work.

For data set [4], the target named is T1, USP1/UAF1 complex. The data set can be described thus: ubiquitin-AMC in vitro deubiquitination enzyme assay. It counts as biochemical. The note with it: 4 hour preincubation; AMC-Ub in vitro enzyme assay; read-out: IC50. The method, then:
Purified USP1/UAF1 complex was incubated with 1 μM C527 or DMSO for indicated time, followed by the addition of Ub-AMC at 0.5 μM final concentration. The fluorescence at […] was measured to indicate the enzymatic activity of USP1. […] 5A.
The in vitro enzymatic assays were performed using purified proteins from Sf9 cells as described previously (Cohn et al.). The assays using ubiquitin-AMC (Ub-7-amido-4-methylcoumarin; Boston Biochem) as substrate was carried out in a reaction buffer containing 20 mM HEPES-KOH (pH 7.8), 20 mM NaCl, 0.1 mg/ml ovalbumin, 0.5 mM EDTA and 10 mM dithiothreitol. The fluorescence was measured by FluoStar Galaxy Fluorometer (BMG Labtech). For the Ub-vinylsulfone (VS) assay, the proteins were incubated with Ub-VS at 0.5 μM final concentration for 1 h at 30° C., followed by the immunoblotting analysis.
In order to develop a highly sensitive assay with easy readout for high throughput detection, the fluorogenic compound Ubiquitin-7-amido-4-methylcoumarin (AMC-Ub, Boston Biochem) was used as a substrate for USP1/UAF1 enzyme complex. USP1 catalyzes the cleavage of AMC-Ub, releasing free AMC moiety, which leads to increase in fluorescence emission at 460 nm (λex=380 nm). Dang et al. (1998) Biochemistry 37:1868-79. […] Initial enzyme assay development was performed in 96-well plates with 100 μl reaction volume containing 20 mM HEPES-KOH, 0.1 mg/ml ovalbumin (Sigma), 0.5 mM EDTA, and 10 mM DTT. 2.5 nM USP1/UAF1 enzyme complex was mixed with the reaction buffer, incubated at 37° C. for 10 minutes and then 0.3 μM AMC-Ub was added. Fluorescence was measured using a Fluostar Galaxy Fluorometer (BMG Labtech Inc.).
Hits from the initial screening were analyzed further in secondary screening. In this step, the compounds were re-tested for inhibition using the AMC-Ub in vitro enzyme assay. After reconfirming inhibition, different concentration range of the inhibitors were tested to show dose dependency of inhibition and IC50 calculation.

Data set [5] addresses T1, USP1/UAF1 complex. The data set can be described thus: high throughput screening for inhibitors of USP1 deubiquitinating activity. It counts as biochemical. The note with it: library of approximately 150,000 compounds. Here is the method:
The ubiquitin-Rho based enzyme assay for high throughput screening was established in a 384-well format. The reaction buffer containing and USP1/UAF1 complex were added in 384 well plates using automated liquid handling robot-Bio-Tek Microfill (Bio-Tek Instrments Inc., VT), followed by addition of the compounds (in DMSO) from the compound library plates to wells using a pin transfer robotic system at a final concentration of 10 μM. The reaction was composed of 0.1 nM purified USP1/UAF complex, 75 nM ubiquitin Rhodamine (Ub-Rho, Boston Biochem, U-600) and 2 μM ubiquitin. Fluorescence was monitored in a FluoStar Galaxy Fluorometer (BMG Labtech). Fluorescence emission at 535 nm (λex=485 nm) was measured in an automated plate reader Envision 2 (Perkin Elmer, Mass.).
In order to develop a highly sensitive assay with easy readout for high throughput detection, the fluorogenic compound Ubiquitin-7-amido-4-methylcoumarin (AMC-Ub, Boston Biochem) was used as a substrate for USP1/UAF1 enzyme complex. USP1 catalyzes the cleavage of AMC-Ub, releasing free AMC moiety, which leads to increase in fluorescence emission at 460 nm (λex=380 nm). Dang et al. (1998) Biochemistry 37:1868-79. Catalytic activity towards AMC-Ub increases 35 fold compared to USP1 enzyme alone. Initial enzyme assay development was performed in 96-well plates with 100 μl reaction volume containing 20 mM HEPES-KOH, 0.1 mg/ml ovalbumin (Sigma), 0.5 mM EDTA, and 10 mM DTT. 2.5 nM USP1/UAF1 enzyme complex was mixed with the reaction buffer, incubated at 37° C. for 10 minutes and then 0.3 μM AMC-Ub was added. Fluorescence was measured using a Fluostar Galaxy Fluorometer (BMG Labtech Inc.).
Once the preliminary enzyme assay was established in 96-well format, it was optimized for 384 wells for high throughput screening (HTS) of inhibitors. The major points to be considered were the volume of the reaction and amount of AMC-Ub substrate to be used in the assay. Since the price of AMC-Ub is very high, in order to make it a feasible assay for HTS, lowest workable amount of the AMC conjugate was used. Reaction volume was minimized to 30 μl in order to meet the recommendation of ICCB-L screening facility (Harvard). In the preliminary optimization experiment, a series of pilot experiments were performed with varying AMC-Ub concentrations (0.025 μM to 0.2 μM), along with the varying concentration of USP1/UAF1 complex (0.2 nM to 3.2 nM). […] After incubating the enzyme and buffer at 37° C. for 10 minutes, AMC-Ub was added and fluorescence emission at 460 nm (λex=380 nm) was measured in an automated plate reader Envision 2 (Perkin Elmer). Fluorescence reading for all time points up to one hour was noted and the data for different AMC-Ub concentration range was plotted with each USP1/UAF1 enzyme complex concentration. […]

The test system of a further data set is HeLa cells. In words: DNA damage response markers by immunoblotting. It counts as cell-based, human. The note with it: 24 hrs, MMC 1 μM positive control, FIG. 9A. Here is the method: FIG. 9 is a composite figure showing that C527 causes DNA damage and inhibits the proliferation of tumor cells. […] HeLa cells were treated with C527 at the indicated concentrations for 24 hrs, and cells were subjected to immunoblotting. Mitomycin C (MMC, 1 μM) was used as a positive control. […] HeLa cells were seeded in a 6-well plate and treated with C527 at the indicated concentrations. Cell proliferation was evaluated using a clonogenic assay.
Impaired HR integrity may lead to genotoxic effect. Genotoxic agents are known to directly activate DNA damage response pathways, resulting in FANCD2 monoubiquitination and CHK1 phosphorylation (FIG. 9A).

T1 sequence (O94782 whole entry G670A/G671A): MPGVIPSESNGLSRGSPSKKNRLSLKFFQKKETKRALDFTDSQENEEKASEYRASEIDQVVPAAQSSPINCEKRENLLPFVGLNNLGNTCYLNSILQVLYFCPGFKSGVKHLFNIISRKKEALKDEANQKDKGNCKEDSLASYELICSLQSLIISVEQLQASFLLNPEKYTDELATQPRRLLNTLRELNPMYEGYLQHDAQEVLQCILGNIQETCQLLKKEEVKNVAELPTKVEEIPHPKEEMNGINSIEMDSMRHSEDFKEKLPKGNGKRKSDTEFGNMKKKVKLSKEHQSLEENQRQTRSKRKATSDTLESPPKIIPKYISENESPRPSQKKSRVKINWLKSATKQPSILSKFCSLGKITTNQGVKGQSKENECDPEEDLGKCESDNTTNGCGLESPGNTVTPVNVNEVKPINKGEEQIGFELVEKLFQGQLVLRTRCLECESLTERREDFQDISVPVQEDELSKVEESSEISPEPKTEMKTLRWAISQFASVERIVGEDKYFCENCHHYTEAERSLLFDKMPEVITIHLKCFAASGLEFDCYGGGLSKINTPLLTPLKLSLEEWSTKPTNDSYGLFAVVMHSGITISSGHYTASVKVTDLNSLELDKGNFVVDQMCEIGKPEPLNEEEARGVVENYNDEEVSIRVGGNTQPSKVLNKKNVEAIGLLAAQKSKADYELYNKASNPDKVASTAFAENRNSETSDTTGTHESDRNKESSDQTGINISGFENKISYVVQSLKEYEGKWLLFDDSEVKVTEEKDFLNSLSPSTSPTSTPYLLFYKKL
T1 sequence (Q8TAF3 whole entry partner): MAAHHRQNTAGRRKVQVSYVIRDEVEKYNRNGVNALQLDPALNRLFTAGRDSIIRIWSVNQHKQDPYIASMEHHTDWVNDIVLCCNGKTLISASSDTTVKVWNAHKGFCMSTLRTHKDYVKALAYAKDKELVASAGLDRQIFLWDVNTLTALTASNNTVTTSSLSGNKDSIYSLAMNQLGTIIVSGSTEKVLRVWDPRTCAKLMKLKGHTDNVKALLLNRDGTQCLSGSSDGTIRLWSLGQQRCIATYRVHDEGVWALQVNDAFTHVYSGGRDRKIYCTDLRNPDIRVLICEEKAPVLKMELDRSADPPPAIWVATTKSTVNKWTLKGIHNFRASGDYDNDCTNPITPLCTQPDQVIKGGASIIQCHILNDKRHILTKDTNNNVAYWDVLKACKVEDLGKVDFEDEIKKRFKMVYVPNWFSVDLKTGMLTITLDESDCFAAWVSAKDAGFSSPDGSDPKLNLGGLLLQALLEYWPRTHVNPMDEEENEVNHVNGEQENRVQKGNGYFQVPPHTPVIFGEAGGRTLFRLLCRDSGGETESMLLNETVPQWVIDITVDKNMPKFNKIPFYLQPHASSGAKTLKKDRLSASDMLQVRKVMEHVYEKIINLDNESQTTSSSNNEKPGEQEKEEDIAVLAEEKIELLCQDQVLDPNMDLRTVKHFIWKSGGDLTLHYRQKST

Turning to `CC(C)C[C@H](NC(=O)[C@H](Cc1ccccc1)NC(=O)c1cnccn1)B(O)O` [Bortezomib], the FA/BRCA pathway entry in data set [1] is “inhibited the FA/BRCA pathway”. For the compound Ub-aldehyde [reference compound], in data set [2], the “Ub-VS labeling of endogenous DUBs (HA-labeling)” value is “inhibited”.

For the compound `CC[N+](C)(CC)CCC[n+]1c(-c2ccccc2)c2cc(N)ccc2c2ccc(N)cc21.[I-].[I-]` [Biomol AP401 (propidium iodide), propidium iodide], on USP1/UAF1 complex [3], the “fluorescence signal in high throughput screen” value (“fluorescence signal” below) is listed as “substantial low fluorescence signal”. Regarding `COc1ccc(CN2C(=O)Cc3ccccc3C2=O)cc1OC` [Formula VI (009)], at USP1/UAF1 complex [4], the IC50 was determined as 2.4 µM. In addition, at USP1/UAF1 complex [5], the “identified as inhibitor of USP1 in initial in vitro screening” value (shortened to “identified as inhibitor of USP1”) was “inhibitors of USP1”. Turning to `CO[C@@]12[C@H](COC(N)=O)C3=C(C(=O)C(C)=C(N)C3=O)N1C[C@@H]1N[C@@H]12` [MMC, mitomycin C], the “markers of the DNA damage response (FANCD2 monoubiquitination, CHK1 phosphorylation)” value with HeLa cells is recorded as “can activate markers of the DNA damage response”. With `CC1(C)CCC2=C(O1)c1ccccc1C(=O)C2=O` [β-lapachone], at USP1/UAF1 complex [3], the “fluorescence signal” value is “substantial low fluorescence signal”. Regarding `CCCCCCCCCCCCCCCC(=O)C1=C(O)C(CO)OC1=O` (centres unmarked) [RK-682], at USP1/UAF1 complex [3], the “fluorescence signal” value is recorded as “substantial low fluorescence signal”.

Take `NC1=C(Cl)C(=O)c2ccccc2C1=O` [Formula III (933)]: the “identified as inhibitor of USP1” value on USP1/UAF1 complex [5] is given as “inhibitors of USP1”. For the compound `O=C1Cc2ccccc2C(=O)N1Cc1ccco1` [Formula V (947)], on USP1/UAF1 complex [4], the half-inhibitory concentration (IC50) was found to be 7.5 µM. The “identified as inhibitor of USP1” value on USP1/UAF1 complex [5] is recorded as “inhibitors of USP1”.
